SMILES strings stand for the structures.

The test concerns Helicoverpa armigera. Description: Insecticidal activity test against Helicoverpa armigera (cabbage leaf dip). Type of test: in vivo. The following applies: hatched larvae, 25° C., after 6 days. On the procedure:
A wettable powder prepared in accordance with Formulation Example 1 was diluted with water to a concentration of 500 ppm as the active ingredient. A cabbage leaf was dipped in the resultant chemical solution, air-dried, and then put in a plastic cup. Five hatched larvae of Helicoverpa armigera were released therein, and the resultant was covered. Thereafter, the resultant was placed in a constant temperature chamber of 25° C., and after 6 days, the number of dead larvae was counted to obtain a corrected mortality rate in accordance with the following equation of Expression 1. The test was performed in duplicate.

Where [1] appears, read: 500 ppm active ingredient, same test run with comparative formula A, 2-a retested at the same time.

Under setting [1], `Cc1cc(CSSCc2cc(C)[nH]n2)n[nH]1` [formula A, reference compound] returned a corrected mortality rate of 44%. For `Cn1nc(C(F)(F)F)c(CSSCc2c(C(F)(F)F)nn(C)c2OC(F)F)c1OC(F)F` [Compound 2-a, 1,2-bis[(5-difluoromethoxy-1-methyl-3-trifluoromethylpyrazol-4-yl)methyl]disulfide], the corrected mortality rate is on record as 75% (500 ppm active ingredient (wettable powder diluted with water), first test) and 89% under setting [1].
